Test results as given in patent US9987381B2, “Radioligands for imaging the LPA-1 receptor” (BRISTOL-MYERS SQUIBB COMPANY, priority 2013, dated 2018).
Where two headings read alike, the source gives them in different places.

What was measured:
Format in all cases: in vivo, rhesus monkeys
LPA1 [1] = target: T1, LPA1 (Macaca mulatta, UniProt H9EN64); test: PET blocking study of [11C]-BMT-136088 with BMS-986020; settings: from BPND 1.1±0.1
T1 construct: from tissue; host or cells: lung of living anaesthetised rhesus monkeys (in vivo PET)
T1 sequence (H9EN64 1-364): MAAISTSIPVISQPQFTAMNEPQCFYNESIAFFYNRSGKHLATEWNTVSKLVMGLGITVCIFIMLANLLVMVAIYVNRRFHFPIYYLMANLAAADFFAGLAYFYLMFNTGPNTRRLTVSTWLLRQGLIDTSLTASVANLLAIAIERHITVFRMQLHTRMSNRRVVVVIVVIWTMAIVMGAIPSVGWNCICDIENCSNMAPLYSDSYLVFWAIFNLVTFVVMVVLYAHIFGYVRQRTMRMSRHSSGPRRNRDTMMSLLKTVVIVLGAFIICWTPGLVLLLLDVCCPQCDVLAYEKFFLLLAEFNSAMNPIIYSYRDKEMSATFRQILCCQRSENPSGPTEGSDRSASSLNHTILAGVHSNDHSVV
Experimental: For the blocking data reanalyzed here, each animal was scanned twice during the administration of [^11C]-BMT-136088, using a bolus plus infusion (B+I) protocol: at baseline first, then during the administration of the blocking drug, BMS-986020, also using a bolus plus infusion protocol.
In the blocking study, BMS-986020 was administered i.v. using a 10-min bolus ([…]) followed by a ˜230 min infusion (0.25 mg/kg/hr) for a total dose of 1.224±0.015 mg/kg.
(§1) Two rhesus monkeys were included in the blocking, test-retest, and saturation studies: one male, one female; age=4.8±0.8 y; weight=8.6±0.4 kg. Studies in the same animal were separated by at least 2 weeks to allow the animal to recover from anesthesia and other effects. Four rhesus monkeys (2M, 2F) were included in the dosimetry study.
(§2) Following a low-dose, CT scan used for attenuation correction and to delineate the lung regions of interest, [^11C]-BMT-136088 was injected using a computer-control pump with a bolus plus infusion protocol, with an initial 1-min bolus and a ˜119-min infusion. The volume injected during the initial bolus represented 100 min (Kbol) worth of infusion in the blocking and test-retest study, and 300 min worth of infusion in the saturation study.
(§3) Beginning at the start of each injection, a 120-minute time-of-flight list-mode acquisition on the mCT PET/CT scanner (Siemens Medical Solutions USA, Inc.) was performed. Dynamic PET scan data were reconstructed with corrections for point-spread function, attenuation, normalization, scatter, randoms, and dead time using a 3D OP-OSEM TOF algorithm. PET images were reconstructed into 33 frames, with the following frame timing: 6×30 sec; 3×1 min; 2×2 min; 22×5 min. Each frame contained 400×400×111 (x,y,z) voxels (2.04×2.04×2.0 mm).
Blood samples for PK for each blockade study session were obtained at −1, 60, 90, 120, 150, 210, 240 and 270 minutes after the start of BMS-986020 bolus plus infusion. Red cells were precipitated at 3200 rpm for 10 minutes at 10° C.; the plasma was divided into two aliquots and frozen at −80° C. until shipped for analysis. […]

LPA1 [2] = target: T1, LPA1; test: PET test-retest study of [11C]-BMT-136088 binding
Experimental: (§4) This study was divided in two parts: First, the test-retest variability of [^11C]-BMT-136088 binding in a within-day protocol. Second, a saturation study was performed to evaluate the fraction of specific and non-specific binding for the radiotracer [^11C]-BMT-136088, the in vivo equilibrium dissociation constant KD, and the radiopharmaceutical tracer-dose limit (to achieve less than 5% self-occupancy).
In the test-retest study, each animal was scanned twice per day, with the same interval between the two scans as in the blocking study, to measure the variability of [^11C]-BMT-136088 binding parameter and assess if there was a systematic difference in binding parameters between the two scan times (for example due to the prolonged anesthesia). The study was performed in the same animals as the blocking study.
as §1, §2
as §3, with “mm). […]” for “mm).”

[3] = Plasma concentration and plasma free fraction in saturation study
Experimental: as §1
Blood samples were also collected for the last three saturation studies at −5, 60, 90 and 120 minutes after the start of [^11C]-BMT-136088 bolus plus infusion with non-tracer doses (n=4). Red cells were precipitated at 3200 rpm for 10 minutes at 10° C.; the plasma was divided into two aliquots and frozen at −80° C. until shipped for analysis. The goal of these measurements was to compare the plasma concentrations estimated from measurements of [^11C]-BMT-136088 and its metabolism using gamma counters and HPLC systems, to that from measurement of unlabeled BMT-136088 using mass spectrometry.

LPA1 [4] = target: T1, LPA1; test: PET saturation study of [11C]-BMT-136088 in lung (bolus plus infusion, VT by MA1/EA); settings: for ED50: rhesus monkey
Experimental: as §4
In the saturation study, each animal was scanned twice a day, with varying mass of [^11C]-BMT-136088, from tracer dose to near-saturating doses. The interval between the two scans was the same as in the blocking study and test-retest study. For the first scans, tracer doses were used in 3 out of 4 study days. On the fourth day, the first scan dose was not performed at tracer dose, but the mass of the first dose scan was substantially lower than the second dose to minimize the influence of the first injection on the second scan data.
as §1, §2, §3
The lungs were semi-automatically delineated using CT images collected before each PET scan. • First, the lungs were segmented based on the CT image values in Hounsfield scale (−1000<HU<−200), using a region growing algorithm and seeds manually placed at the center of the lungs; • The trachea, and occasionally the air in the stomach were manually excluded from the segmentation results; • The segmented lung ROIs were divided into right and left ROIs by manually selecting a plane separating the left and right side of the animal (animals were lying in supine position, but this plane was not always perfectly vertical); • The right and left ROIs were further divided into three smaller ROIs: lower lung, mid lung, and upper lung. The upper lung was defined as the part of the lung above the heart; the lower lung was defined as the part of the lung that is less than 5 slices (˜1 cm) above the topmost axial slice where the top of the liver can be seen.
The lung time-activity curves (TACs) were computed for each ROI and expressed in kBq/cm^3. The lung ROI contains lung tissue, blood, and air. In particular, the lung density may change from scan to scan due to (slight) changes in animal positioning, which can change the left-right location of the heart and change which lung tends to be compressed by the heart. Therefore an estimate of the density of lung ROIs was estimated to convert the TAC units from kBq/cm^3 to kBq/g, as follows. The CT images were converted from Hounsfield scale to linear attenuation values (in cm^−1) for 511 KeV photons. These attenuation values were assumed to be linearly proportional to mass for soft tissue (e.g., lung and heart) and the heart density was assumed to be 1 g/cm^3. […]

With `Cc1noc(-c2ccc(-c3ccc(C4(C(=O)O)CC4)cc3)cc2)c1NC(=O)O[C@H](C)c1cccc([11CH3])c1` [[^11C]-BMT-136088, [11C]-(R)-1-(4′-(3-Methyl-4-(((1-(m-tolyl)ethoxy)carbonyl)amino)isoxazol-5-yl)-[1,1′-biphenyl]-4-yl)cyclopropanecarboxylic acid] the “maximum expected blockade effect” value (LPA1 [1]) was 52%, the test-retest variability (LPA1 [2]; EA, density and blood activity corrections, left ROIs mid and upper lung) was −2±10% and the test-retest variability (LPA1 [2]; EA, density and blood activity corrections, right ROIs mid and upper lung) was −1±11%. For the same molecule, the test-retest variability (LPA1 [2]; MA1, animal A2, left ROIs mid and upper lung) was −5%, the test-retest variability (LPA1 [2]; MA1, animal A2, right ROIs mid and upper lung) was −8% and the fraction unbound ([3]; both sexes, rhesus monkey, plasma, intravenous, measured during the saturation studies) was 0.002. For the same molecule, the “slope of plasma concentration vs injected mass” value ([3]; saturation study, linear increase) was 0.92 nM/(μg/kg), the IC50 (LPA1 [4]; MA1 and all corrections, VT versus plasma concentration) was 28 ± 12 nM and the “binding potential BPND” value (LPA1 [4]; MA1 with all corrections, lung) was 1.1±0.1. For the same molecule, the “fraction of tracer in lung (excluding blood) specifically bound to LPA1 sites” value (LPA1 [4]; at equilibrium) was “about 50%”, the Kd (LPA1 [4]; from plasma IC50 and plasma free fraction, read-out: in vivo KD) was 0.055 nM and the ED50 (LPA1 [4]; MA1 with all corrections, read-out: ED50) was 0.036 ± 0.015 mg/kg. The ED50 (LPA1 [4]; all ED50 estimates, range over analysis methods, read-out: ED50 estimates (all methods)) was 0.036 to 0.056 mg/kg and the tracer dose limit (LPA1 [4]; to occupy less than 5% of LPA1 sites, based on ED50) was 0.0019 mg/kg.
